Data on four compounds can be found in patent publication US20230265151A1, “GIP/GLP1 CO-AGONIST COMPOUNDS” (priority 2020, published 2023).

Holding throughout (type): cell-based
One experiment addresses T1, hGIPR (Homo sapiens, UniProt P48546).
T1 construct: expressed in transfected cells
T1 sequence (P48546 22-466): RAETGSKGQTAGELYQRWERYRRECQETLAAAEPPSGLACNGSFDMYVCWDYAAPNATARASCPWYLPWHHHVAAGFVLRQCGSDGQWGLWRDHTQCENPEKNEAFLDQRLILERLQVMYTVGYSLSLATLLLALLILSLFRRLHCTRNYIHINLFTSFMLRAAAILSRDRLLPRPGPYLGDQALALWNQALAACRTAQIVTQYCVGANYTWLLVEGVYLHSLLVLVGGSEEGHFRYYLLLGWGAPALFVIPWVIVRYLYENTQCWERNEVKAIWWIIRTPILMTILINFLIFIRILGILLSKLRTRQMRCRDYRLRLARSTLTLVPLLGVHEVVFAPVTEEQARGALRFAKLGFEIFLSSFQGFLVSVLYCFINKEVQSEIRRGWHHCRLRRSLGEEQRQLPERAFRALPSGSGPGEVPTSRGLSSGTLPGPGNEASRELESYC
The experiment is described as follows: Functional cAMP formation (HTRF) in HEK-293 clonal cells expressing hGIPR, 0.1% bovine casein, without or with 1.0% human serum albumin. The settings on record: for Emax: percent of maximal response to GIP(1-42)NH2; for EC50: hGIPR EC50, nM (SEM, n). The procedure, abridged:
(§1)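 Readings of the HTRF 665/620 nm ratio, which falls as cAMP rises, were converted to nM cAMP using a standard curve after 30 min peptide exposure at 37° C.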

For the next experiment, the target named is T2, hGCGR (Homo sapiens, UniProt P47871).
T2 construct: expressed in transfected cells
T2 sequence (P47871 26-477): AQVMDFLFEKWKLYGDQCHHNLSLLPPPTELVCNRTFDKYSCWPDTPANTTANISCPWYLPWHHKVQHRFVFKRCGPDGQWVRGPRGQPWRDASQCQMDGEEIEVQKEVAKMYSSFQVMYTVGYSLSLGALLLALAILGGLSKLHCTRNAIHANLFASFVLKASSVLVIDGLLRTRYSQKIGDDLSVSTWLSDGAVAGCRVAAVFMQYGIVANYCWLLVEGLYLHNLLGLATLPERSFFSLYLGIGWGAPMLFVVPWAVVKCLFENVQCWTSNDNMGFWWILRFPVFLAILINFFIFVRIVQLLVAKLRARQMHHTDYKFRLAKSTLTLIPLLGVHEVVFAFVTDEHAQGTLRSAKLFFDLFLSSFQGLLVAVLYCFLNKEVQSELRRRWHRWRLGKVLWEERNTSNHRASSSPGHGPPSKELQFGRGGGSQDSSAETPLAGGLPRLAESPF
Briefly: Functional cAMP formation (HTRF) in HEK-293 clonal cells expressing hGCGR, 0.1% bovine casein, without or with 1.0% human serum albumin. Particulars: hGCGR EC50, nM (SEM, n). The procedure, abridged:
as §1
(In general: Changes in cAMP serve as a functional read-out for many G protein-coupled receptors.)

The target in the next experiment is hGLP-1R (Homo sapiens, UniProt P43220). The experiment is described as follows: Functional cAMP formation (HTRF) in HEK-293 clonal cells expressing hGLP-1R, 0.1% bovine casein, without or with 1.0% human serum albumin. The arrangement: expressed in transfected cells. Particulars: for Emax: percent of maximal response to GLP-1(7-36)NH2; for EC50: hGLP-1R EC50, nM (SEM, n), cAMP. The procedure, abridged:
as §1

Setting [1] is: HEK293, read-out: hGIPR Emax, % ± SEM, 0.1% bovine casein and 1.0% human serum albumin, 37° C.
Where [2] appears, read: 0.1% bovine casein and 1.0% human serum albumin, 37° C., geometric mean.
Where [3] appears, read: cAMP, 37° C., 0.1% bovine casein (no human serum albumin), geometric mean.
Setting [4] is: HEK293, read-out: hGLP-1R Emax, % ± SEM, 0.1% bovine casein and 1.0% human serum albumin, 37° C.
Setting [5] is: 37° C., 0.1% bovine casein (no human serum albumin), geometric mean.
The mark [6] stands for this setting: cAMP, 37° C., 0.1% bovine casein and 1.0% human serum albumin, geometric mean (SEM, n).
Setting [7] is: HEK293, read-out: hGLP-1R Emax, % ± SEM, cAMP, 37° C., 0.1% bovine casein, arithmetic mean.
Where [8] appears, read: cAMP, incubated at 37° C., 0.1% bovine casein (no human serum albumin), geometric mean.

Read-outs that look alike come from different tables or passages of the source. *1 amine or outer side, *2 acyl side, *3 side chain or, on linkers, in order; H or OH if unused. Where a SMILES comes first, the peptide text is derived from it. Side-chain parts run from the residue outwards. [ ]: non-standard residue; d: D form. The star is where a group is joined. Decanoyl(10-(4-HOOC-PhO)) = O=C(O)c1ccc(OCCCCCCCCCC(=O)*)cc1; αMePhe(2-F) = C[C@](N)(Cc1ccccc1F)C(=O)O; γGlu = O=C(O)[C@H](CCC(=O)[*:2])N[*:1]; αMeY = C[C@](N)(Cc1ccc(O)cc1)C(=O)O; αMeL = CC(C)C[C@](C)(N)C(=O)O; Orn = NCCC[C@H](N)C(=O)O; AEEA = NCCOCCOCC(=O)O; Aib = CC(C)(N)C(=O)O

hGLP-1R, sequence (P43220 24-463): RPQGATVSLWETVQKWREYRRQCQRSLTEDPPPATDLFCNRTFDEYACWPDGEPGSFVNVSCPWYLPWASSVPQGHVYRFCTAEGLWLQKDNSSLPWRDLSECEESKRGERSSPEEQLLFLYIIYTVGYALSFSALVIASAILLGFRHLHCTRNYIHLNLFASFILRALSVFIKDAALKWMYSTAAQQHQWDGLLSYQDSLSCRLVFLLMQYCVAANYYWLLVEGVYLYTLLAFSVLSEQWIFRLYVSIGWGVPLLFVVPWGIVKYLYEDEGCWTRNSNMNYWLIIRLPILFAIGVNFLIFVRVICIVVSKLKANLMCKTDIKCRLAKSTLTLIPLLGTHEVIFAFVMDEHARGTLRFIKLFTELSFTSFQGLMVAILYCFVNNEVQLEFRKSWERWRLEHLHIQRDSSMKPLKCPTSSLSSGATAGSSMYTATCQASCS

Take `CC[C@H](C)[C@H](NC(=O)[C@H](CC(C)C)NC(=O)[C@](C)(Cc1ccc(O)cc1)NC(=O)[C@@H](CCC(=O)O)NC(=O)[C@@H](NC(=O)[C@H](Cc1ccccc1)NC(=O)[C@H](CCCCNC(=O)COCCOCCNC(=O)COCCOCCNC(=O)CC[C@H](NC(=O)CCCCCCCCCOc1ccc(C(=O)O)cc1)C(=O)O)NC(=O)C(C)(C)NC(=O)[C@H](CCC(N)=O)NC(=O)[C@H](C)NC(=O)[C@H](CCCCNC(=O)COCCOCCNC(=O)COCCOCCNC(=O)CC[C@H](NC(=O)CCCCCCCCCOc1ccc(C(=O)O)cc1)C(=O)O)NC(=O)[C@H](CCCN)NC(=O)[C@H](CC(=O)O)NC(=O)[C@H](CC(C)C)NC(=O)[C@](C)(CC(C)C)NC(=O)[C@@H](NC(=O)[C@H](CO)NC(=O)[C@H](Cc1ccc2ccccc2c1)NC(=O)[C@H](CC(=O)O)NC(=O)[C@H](CO)NC(=O)[C@@H](NC(=O)[C@](C)(Cc1ccccc1F)NC(=O)[C@@H](NC(=O)CNC(=O)[C@H](CCC(=O)O)NC(=O)C(C)(C)NC(=O)[C@@H](N)Cc1ccc(O)cc1)[C@@H](C)O)[C@@H](C)O)[C@@H](C)CC)[C@@H](C)CC)C(=O)N[C@@H](CCC(=O)O)C(=O)NCC(=O)NCC(=O)N1CCC[C@H]1C(=O)N[C@@H](CO)C(=O)N[C@@H](CO)C(=O)NCC(=O)N[C@@H](C)C(=O)N1CCC[C@H]1C(=O)N1CCC[C@H]1C(=O)N1CCC[C@H]1C(=O)N[C@@H](CO)C(N)=O` [Example 281]: the Emax was 97.9% on hGIPR (setting [1]); 110% at hGIPR (HEK293, read-out: hGIPR Emax, % ± SEM, cAMP, 37° C., 0.1% bovine casein, arithmetic mean); 91.7% on hGLP-1R (setting [4]). Further, the EC50 on hGIPR (setting [2]) is 1.87 nM; on hGIPR (setting [3]), 0.0187 nM; on hGCGR (setting [2]), greater than 9950 nM; at hGCGR (setting [3]), greater than 9950 nM; on hGLP-1R (setting [5]), 0.252 nM.
Take `CC[C@H](C)[C@H](NC(=O)[C@H](CC(C)C)NC(=O)[C@](C)(Cc1ccc(O)cc1)NC(=O)[C@@H](CCC(=O)O)NC(=O)[C@@H](NC(=O)[C@H](Cc1ccccc1)NC(=O)[C@H](CCCCNC(=O)COCCOCCNC(=O)COCCOCCNC(=O)CC[C@H](NC(=O)CCCCCCCCCOc1ccc(C(=O)O)cc1)C(=O)O)NC(=O)C(C)(C)NC(=O)[C@H](CCC(N)=O)NC(=O)[C@H](C)NC(=O)[C@H](CCCCNC(=O)COCCOCCNC(=O)COCCOCCNC(=O)CC[C@H](NC(=O)CCCCCCCCCOc1ccc(C(=O)O)cc1)C(=O)O)NC(=O)[C@H](CCCN)NC(=O)[C@H](CC(=O)O)NC(=O)[C@H](CC(C)C)NC(=O)[C@](C)(CC(C)C)NC(=O)[C@@H](NC(=O)C(C)(C)NC(=O)[C@@H](NC(=O)[C@H](CC(=O)O)NC(=O)[C@H](CO)NC(=O)[C@@H](NC(=O)[C@](C)(Cc1ccccc1F)NC(=O)[C@@H](NC(=O)CNC(=O)[C@H](CCC(=O)O)NC(=O)C(C)(C)NC(=O)[C@@H](N)Cc1ccc(O)cc1)[C@@H](C)O)[C@@H](C)O)C(C)C)[C@@H](C)CC)[C@@H](C)CC)C(=O)N[C@@H](CCCN)C(=O)NCC(=O)NCC(=O)N1CCC[C@H]1C(=O)N[C@@H](CO)C(=O)N[C@@H](CO)C(=O)NCC(=O)N[C@@H](C)C(=O)N1CCC[C@H]1C(=O)N1CCC[C@H]1C(=O)N1CCC[C@H]1C(=O)N[C@@H](CO)C(N)=O` [Example 410] (H-Y[Aib]EGT[αMePhe(2-F)]TSDV[Aib]I[αMeL]LD[Orn]K([AEEA-AEEA-γGlu-Decanoyl(10-(4-HOOC-PhO))])AQ[Aib]K([AEEA-AEEA-γGlu-Decanoyl(10-(4-HOOC-PhO))])FI[dE][αMeY]LI[Orn]GGPSSGAPPPS-NH2): the maximal response (Emax) on hGIPR (HEK293, read-out: hGIPR Emax, % ± SEM, cAMP, 37° C., 0.1% bovine casein and 1.0% human serum albumin) worked out at 86.4%; at hGLP-1R (HEK293, read-out: hGLP-1R Emax, % ± SEM, cAMP, 37° C., 0.1% bovine casein and 1.0% human serum albumin), 93.1%; on hGLP-1R (setting [7]) it was 94%. For the same compound, the EC50 on hGIPR (setting [3]) was 0.0118 nM; at hGIPR (setting [6]), 1.28 nM; on hGCGR (setting [3]) it was greater than 9950 nM; on hGCGR (setting [6]) it was greater than 9950 nM; at hGLP-1R (setting [5]) it was 0.251 nM; at hGLP-1R (37° C., 0.1% bovine casein and 1.0% human serum albumin, geometric mean (SEM, n)), 11 nM.
For `CC[C@H](C)[C@H](NC(=O)[C@H](CC(C)C)NC(=O)[C@](C)(Cc1ccc(O)cc1)NC(=O)[C@@H](CCC(=O)O)NC(=O)[C@@H](NC(=O)[C@H](Cc1ccccc1)NC(=O)[C@H](CCC(=O)O)NC(=O)C(C)(C)NC(=O)[C@H](CCC(N)=O)NC(=O)[C@H](C)NC(=O)[C@H](CCCCNC(=O)COCCOCCNC(=O)COCCOCCNC(=O)CC[C@H](NC(=O)CCCCCCCCCOc1ccc(C(=O)O)cc1)C(=O)O)NC(=O)[C@H](CCCN)NC(=O)[C@H](CC(=O)O)NC(=O)[C@H](CC(C)C)NC(=O)[C@](C)(CC(C)C)NC(=O)[C@@H](NC(=O)C(C)(C)NC(=O)[C@H](Cc1ccc(O)cc1)NC(=O)[C@H](CC(=O)O)NC(=O)[C@H](CO)NC(=O)[C@@H](NC(=O)[C@](C)(Cc1ccccc1F)NC(=O)[C@@H](NC(=O)CNC(=O)[C@H](CCC(=O)O)NC(=O)C(C)(C)NC(=O)[C@@H](N)Cc1ccc(O)cc1)[C@@H](C)O)[C@@H](C)O)[C@@H](C)CC)[C@@H](C)CC)C(=O)N[C@@H](CCCCNC(=O)COCCOCCNC(=O)COCCOCCNC(=O)CC[C@H](NC(=O)CCCCCCCCCOc1ccc(C(=O)O)cc1)C(=O)O)C(=O)NCC(=O)NCC(=O)N1CCC[C@H]1C(=O)N[C@@H](CO)C(=O)N[C@@H](CO)C(=O)NCC(=O)N[C@@H](C)C(=O)N1CCC[C@H]1C(=O)N1CCC[C@H]1C(=O)N1CCC[C@H]1C(=O)N[C@@H](CO)C(N)=O` [Example 237], the maximal response (Emax) on hGIPR (setting [1]) is 93.1%; at hGLP-1R (setting [4]), 113%. The EC50 at hGIPR (setting [8]) is 0.0186 nM; at hGCGR (setting [2]) it was greater than 9950 nM; at hGCGR (setting [8]), greater than 9950 nM; on hGLP-1R (incubated at 37° C., 0.1% bovine casein (no human serum albumin), geometric mean), 0.633 nM.
Regarding `CC[C@H](C)[C@H](NC(=O)[C@H](CC(C)C)NC(=O)[C@](C)(Cc1ccc(O)cc1)NC(=O)[C@@H](CCC(=O)O)NC(=O)[C@@H](NC(=O)[C@H](Cc1ccccc1)NC(=O)[C@H](CCCCNC(=O)COCCOCCNC(=O)COCCOCCNC(=O)CC[C@H](NC(=O)CCCCCCCCCOc1ccc(C(=O)O)cc1)C(=O)O)NC(=O)C(C)(C)NC(=O)[C@H](CCC(N)=O)NC(=O)[C@H](C)NC(=O)[C@H](CCCCNC(=O)COCCOCCNC(=O)COCCOCCNC(=O)CC[C@H](NC(=O)CCCCCCCCCOc1ccc(C(=O)O)cc1)C(=O)O)NC(=O)[C@H](CCCN)NC(=O)[C@H](CC(=O)O)NC(=O)[C@H](CC(C)C)NC(=O)[C@](C)(CC(C)C)NC(=O)[C@@H](NC(=O)[C@H](CO)NC(=O)[C@H](Cc1ccc(OC)cc1)NC(=O)[C@H](CC(=O)O)NC(=O)[C@H](CO)NC(=O)[C@@H](NC(=O)[C@](C)(Cc1ccccc1F)NC(=O)[C@@H](NC(=O)CNC(=O)[C@H](CCC(=O)O)NC(=O)C(C)(C)NC(=O)[C@@H](N)Cc1ccc(O)cc1)[C@@H](C)O)[C@@H](C)O)[C@@H](C)CC)[C@@H](C)CC)C(=O)N[C@@H](CCC(=O)O)C(=O)NCC(=O)NCC(=O)N1CCC[C@H]1C(=O)N[C@@H](CO)C(=O)N[C@@H](CO)C(=O)NCC(=O)N[C@@H](C)C(=O)N1CCC[C@H]1C(=O)N1CCC[C@H]1C(=O)N1CCC[C@H]1C(=O)N[C@@H](CO)C(N)=O` [Example 277] (H-Y[Aib]EGT[αMePhe(2-F)]TSDY(Me)SI[αMeL]LD[Orn]K([AEEA-AEEA-γGlu-Decanoyl(10-(4-HOOC-PhO))])AQ[Aib]K([AEEA-AEEA-γGlu-Decanoyl(10-(4-HOOC-PhO))])FI[dE][αMeY]LIEGGPSSGAPPPS-NH2), the EC50 is 0.0176 nM at hGIPR (setting [3]), greater than 9950 nM on hGCGR (setting [2]), greater than 9950 nM at hGCGR (setting [3]) and 0.225 nM on hGLP-1R (setting [5]). The Emax on hGLP-1R (setting [4]) amounted to 93.1%; at hGLP-1R (setting [7]) it was 97.1%.

The term Emax denotes the greatest response seen or fitted, relative to the assay's reference. By EC50 is commonly meant the concentration at which the effect is half-maximal. The low end stands for a more potent agent, the high end for a less potent agent.
